Assay results as given in patent publication US20180344680A1, “COMPOSITIONS AND METHODS FOR TREATMENT, AMELIORATION, AND PREVENTION OF DIABETES-RELATED SKIN ULCERS” (THE ARIZONA BOARD OF REGENTS ON BEHALF OF THE UNIVERSITY OF …, priority 2015, published 2018).
“Also recorded” adds a separate entry of the source.

Legend:
[1] = Body weight and blood glucose in STZ-induced diabetic mice; format: in vivo, mouse; conditions: diabetic Nrf2+/+ mice; 12.5 mg/kg SF or 50 mg/kg CA intraperitoneally every other day; vs untreated STZ
Procedure: Diabetes mouse model and treatments. […] Briefly, three weeks after STZ injections, fasting glucose levels (FGL, 4 h fast) were measured using the AlphaTRAK system (Abbott Laboratory, North Chicago, Ill.) and mice with a FGL higher than or equal to 250 mg/dL were considered diabetic and included in the study (see, e.g., FIG. 2A and FIG. 3A for a detailed timeline). The mice (n=5-8) were then allocated randomly to each of the indicated treatment groups and received corn oil (control), 12.5 mg/kg SF or 50 mg/kg CA intraperitoneally every two days until skin tissues were harvested.
After induction of diabetes using STZ, diabetic Nrf2^+/+ mice were intraperitoneally injected with corn oil (vehicle control), 12.5 mg/kg SF, or 50 mg/kg CA every other day for 1 week, then the wound surgery was performed and the treatment continued for 2 more weeks (FIG. 3A).

[2] = tested on: wounds of non-diabetic Nrf2+/+ mice; test: Wound closure in non-diabetic mice; format: in vivo, mouse; conditions: non-diabetic Nrf2+/+ mice treated with SF or CA vs corn oil; up to 14 days
Source text: Diabetes mouse model and treatments. Nrf2^+/+ and Nrf2^-/- C57BL/6 mice were described previously (see, e.g., Jiang T, et al., Diabetes 59:850-860, 2010) and were housed and handled in accordance with the University of Arizona Institutional Animal Care policies. The STZ-induced diabetic model was previously described (see, e.g., Zheng H, et al., Diabetes 60:3055-3066, 2011) and only 8 week old male mice were included in this study. Briefly, three weeks after STZ injections, fasting glucose levels (FGL, 4 h fast) were measured using the AlphaTRAK system (Abbott Laboratory, North Chicago, Ill.) and mice with a FGL higher than or equal to 250 mg/dL were considered diabetic and included in the study (see, e.g., FIG. 2A and FIG. 3A for a detailed timeline). The mice (n=5-8) were then allocated randomly to each of the indicated treatment groups and received corn oil (control), 12.5 mg/kg SF or 50 mg/kg CA intraperitoneally every two days until skin tissues were harvested. One week after the treatments, the mice were anesthetized, their backs were shaved and cleaned. Two wounds were made with a sterile 6 mm skin biopsy punch (Health link, Jacksonville, Fla.) and covered with 3M Tegaderm pads. […] Gross wound closure was quantified by ImageJ software, and wound healing was expressed as the percentage of the original wound area that had healed. […]

MMP9 = MMP9 immunoblot and gelatin zymography in HaCaT cells under high glucose; format: cell-based, human; conditions: HG HaCaT cells, 5 μmol/L SF or 20 μmol/L CA
Procedure: Human immortalized keratinocytes HaCaT were obtained from the Arizona Cancer Center (see, e.g., Boukamp P, et al., J Cell Biol 106:761-771, 1988). Cells were grown in Dulbecco's modified Eagle's medium (DMEM) containing low glucose (LG, 5.5 mmol/L) and 10% fetal bovine serum (FBS) in an incubator at 37° C. with 5% CO2. For the experiments, the cells were starved in serum-free LG DMEM for 24 h, then either maintained in LG DMEM or switched to high glucose (HG, 25 mmol/L) DMEM for 2 days (see, e.g., Zheng H, et al., Diabetes 60:3055-3066, 2011; Lan C C, et al., Br J Dermatol 159:1103-1115, 2008). For the treatments, the cells were dosed with 5 μmol/L SF or 20 μmol/L CA.
siRNA transfections. […]
Cultured HaCaT cells were harvested in 1× sample buffer (50 mM Tris-HCl pH 6.8, 2% sodium dodecyl sulfate (SDS), 10% glycerol, 100 mM dithiothreitol (DTT), 0.1% bromophenol blue), boiled and sonicated. […] TGF-β1 was measured using the Quantikine human TGF-β1 immunoassay kit (R&D systems; Minneapolis, Minn.) according to the manufacturer's instructions. The absorbance at 450 nm was measured using a Synergy 2 microplate reader (BioTek, Winooski, Vt.) and the amount of TGF-β1 was calculated by standard curve. MMP9 activity was evaluated by gelatin zymography as described elsewhere (see, e.g., Toth M, et al., Methods Mol Biol 878:121-135, 2012; Zhu P, et al., Exp Dermatol 21:123-129, 2012). […]

| SMILES | blood glucose levels [1] | body weight [1] | wound closure [2] | expression and activity of MMP9 (MMP9) |
| --- | --- | --- | --- | --- |
| O=CC=Cc1ccccc1 [CA, Cinnamaldehyde] | failed to decrease blood glucose levels | reversed the body weight loss during the initial phase of diabetes | No statistically significant differences; also recorded: do not show accelerated wound closure | decreased |
| C[S@@+]([O-])CCCCN=C=S [SF, L-sulforaphane] | failed to decrease blood glucose levels | reversed the body weight loss during the initial phase of diabetes | No statistically significant differences; also recorded: do not show accelerated wound closure | decreased |
